According to US9636323B2, “Method of treating cancer that overexpresses TopBP1” (Baylor College of Medicine, priority 2014, dated 2017):
Where “and” joins values, the source holds several entries; their conditions need not be identical. Equal values may be shown once.

What was measured:
[1] = test system: mutp53(R273H) gain of function; assay: p73 activity reporter (Bax promoter-luciferase) assay in p53-null H1299 cells expressing p73α and mutp53(R273H); type: cell-based, human
Protocol: E2F1 activity reporter assay using a p14^ARF promoter-luciferase plasmid was performed as described (Liu et al. 2003). p53 activity reporter assay was performed by a p21^Cip promoter-luciferase plasmid (Liu et al. 2009). p73 activity reporter assay was performed using a pGL3-Bax promoter-luciferase plasmid (Liu et al. 2011). pRL-TK (Renilla luciferase, Promega) was used in all experiments for controlling transfection efficiency. The firefly and Renilla luciferase activities were measured by Dual-Luciferase Reporter System (Promega), and the firefly luciferase activities were normalized against the Renilla activity. All assays were performed in triplicate.

[2] = test system: NCI-H522; conditions: NCI-DTP database; cited from earlier work
[3] = test system: Jurkat-T cells; assay: Caspase 3/7 activation assay, Jurkat-T; type: cell-based; conditions: 2.5 μM, 7 hours
Protocol: (§1) The apoptosis was measured by Caspase-Glo® 3/7 assay (Promega) following the manufacturer's protocol. The cells were plated in 6-well tissue culture dish (10^4 cells/well) (BD Falcon) in respective media. […] The blank reactions were prepared per direction. Equal volume of Caspase-Glo® 3/7 reagents were applied to each well. A luminometer (Sirius) was used to quantitate luminescence.

[4] = test system: MDA-MB468 cells; assay: Mammosphere formation; type: cell-based, human; conditions: 2.5 μM, 11 days
Protocol: For in vitro mammosphere culture, ˜5000 MDA-MB468 cells/well were seeded into a Ultra-low Adherent 6-well plate (Stem Cell Technologies) with 2 ml/well fresh complete MammoCult™ medium (Stem Cell Technologies) containing the MammoCult® Basal Medium, MammoCult® Proliferation Supplement, 4 μg/ml Heparin (Stem Cell Technologies) and fresh 0.48 μg/ml Hydrocortisone. Cells were incubated in a 5% CO2 incubator at 37° C. for 7-11 days. […] Each treatment was done in triplicate.

[5] = test system: McA-RH7777 rat hepatoma cells; assay: Apoptosis in rat tumor cells; type: cell-based
Protocol: as §1

[6] = target: T1, TopBP1/E2F1 interaction (Homo sapiens, UniProt Q92547); assay: Co-immunoprecipitation in MDA-MB468 cells, TopBP1/E2F1; type: cell-based; conditions: 2.5 μM, 5 h
T1 construct: endogenous in cells; host or cells: MDA-MB468
T1 sequence (Q92547 whole entry): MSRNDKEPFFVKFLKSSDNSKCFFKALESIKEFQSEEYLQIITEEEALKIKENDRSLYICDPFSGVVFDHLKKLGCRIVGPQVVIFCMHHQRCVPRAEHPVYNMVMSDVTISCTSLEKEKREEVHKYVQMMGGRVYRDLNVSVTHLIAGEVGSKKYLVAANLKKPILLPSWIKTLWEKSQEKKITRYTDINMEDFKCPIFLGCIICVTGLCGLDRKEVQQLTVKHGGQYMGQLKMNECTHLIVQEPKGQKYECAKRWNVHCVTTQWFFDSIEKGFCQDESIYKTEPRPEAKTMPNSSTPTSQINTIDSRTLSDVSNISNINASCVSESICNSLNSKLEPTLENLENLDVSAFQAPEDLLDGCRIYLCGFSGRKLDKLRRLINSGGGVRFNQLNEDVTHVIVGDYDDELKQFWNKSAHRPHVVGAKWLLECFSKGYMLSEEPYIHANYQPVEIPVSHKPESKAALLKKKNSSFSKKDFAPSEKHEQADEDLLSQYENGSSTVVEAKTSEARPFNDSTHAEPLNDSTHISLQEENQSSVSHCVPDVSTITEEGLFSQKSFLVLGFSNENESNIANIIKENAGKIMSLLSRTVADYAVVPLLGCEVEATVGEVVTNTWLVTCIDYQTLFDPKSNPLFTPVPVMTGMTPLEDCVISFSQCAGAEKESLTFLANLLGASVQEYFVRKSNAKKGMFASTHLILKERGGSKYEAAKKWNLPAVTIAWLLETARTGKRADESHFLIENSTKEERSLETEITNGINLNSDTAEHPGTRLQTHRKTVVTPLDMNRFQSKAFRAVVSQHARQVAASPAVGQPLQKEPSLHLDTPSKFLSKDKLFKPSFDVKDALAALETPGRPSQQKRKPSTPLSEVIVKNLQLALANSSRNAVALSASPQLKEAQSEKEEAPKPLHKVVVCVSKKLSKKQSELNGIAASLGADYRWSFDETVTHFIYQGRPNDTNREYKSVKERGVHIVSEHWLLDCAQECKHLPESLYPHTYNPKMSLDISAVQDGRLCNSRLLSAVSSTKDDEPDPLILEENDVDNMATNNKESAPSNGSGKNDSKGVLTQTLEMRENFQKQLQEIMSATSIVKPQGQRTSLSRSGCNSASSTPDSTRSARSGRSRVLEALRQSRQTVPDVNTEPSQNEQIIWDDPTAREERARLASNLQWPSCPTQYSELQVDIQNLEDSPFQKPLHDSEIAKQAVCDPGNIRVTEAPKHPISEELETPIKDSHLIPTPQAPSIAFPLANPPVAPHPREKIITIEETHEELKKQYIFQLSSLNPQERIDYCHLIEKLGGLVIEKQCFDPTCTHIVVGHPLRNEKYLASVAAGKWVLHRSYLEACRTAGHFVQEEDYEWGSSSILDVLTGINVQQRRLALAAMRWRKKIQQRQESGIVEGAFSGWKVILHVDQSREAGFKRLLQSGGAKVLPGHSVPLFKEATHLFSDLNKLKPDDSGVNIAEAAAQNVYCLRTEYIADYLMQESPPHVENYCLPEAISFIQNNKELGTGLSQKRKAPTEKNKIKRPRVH
Protocol: MDA-MB468 cells were lysed with TNN buffer (Liu et al. 2003). An aliquot of cell lysates was lysed with SDS lysis buffer and the rest of cell lysates were incubated with appropriate antibodies or beads at 4° C. for 3-12 h. Anti-FLAG beads (Sigma) were washed three times with TNN buffer. Immunoprecipitates were fractionated by SDS-PAGE and electro-transferred to Immobilon-P membrane (Millipore). Equal amount of protein loading was validated with Ponceau-S staining. The specific signals were detected by incubating with appropriate antibody. All primary antibodies were used at 1:1000 dilution and horseradish peroxidase (HRP)-conjugated secondary antibodies were used at 1:5000 dilution for immunoblotting. E2F1 (C-20 and KH-95), p53 (FL393), p63 (4A4 and H-129), p73 (H-79), p21 (C-19), Bax (N-20), GST (B-14), c-Myc (A14), Miz1 (H-190), Chk1 (G4), Actin (C-2) and GAPDH (6C5) antibodies were purchased from Santa Cruz. TopBP1 (mouse monoclonal) and Aid antibodies were purchased from BD Transduction Laboratories. TopBP1 (BL893, Rabbit polyclonal) antibody was purchased from Bethyl. Mouse monoclonal anti-phospho-γH2AX was purchased from Millipore. Phospho-Chk1 (Ser345) antibody was purchased from Cell signaling. FLAG (F7425) antibody was purchased from Sigma. Mouse monoclonal anti-p73 (IMG-246) was purchased from IMGENEX.

[7] = test system: E2F1, p63/p73 and NF-Y target genes; assay: Real-time RT-PCR of E2F1, p63/p73 and NF-Y target genes in MDA-MB468 cells; type: cell-based, human; conditions: 2.5 μM, 5 h
Protocol: RNA was isolated using TRIzol method (Invitrogen). Quantitative reverse transcription-PCR (RT-PCR) was performed in triplicate using the forward and reverse primers ((Chowdhury et al. 2014) Supplementary FIG. 18) on an MX3005P thermal cycler using SYBR green dye method to observe the progress of the reactions with ROX dye, which was added as reference. GAPDH was run in parallel with target genes.

[8] = test system: MDA-MB468 xenografts; assay: MDA-MB468 xenograft model; type: in vivo, nude mice
Protocol: Female nu/nu mice (4-5 weeks old) were purchased from Charles River Laboratories (Cambridge, Mass.). The animals were cared for and maintained by the Animal Care and Use Committee of Baylor College of Medicine. Freshly grown MDA-MB468 breast cancer cells [(8×10^6) cells per site in 100 μl phosphate-buffered saline (PBS)] were injected subcutaneously into the right side of the flank of the 5-6 weeks old mice. When tumors were measurable, the mice were randomly divided into treatment and control groups. […] The control group mice were injected with vehicle (DMSO) in the same way. The mice were monitored thrice per week. The weight of the mice and tumor size were measured on the indicated day with a caliper and calculated based on the formula π/6 (length×depth×width). The evaluator was blinded to the group allocation during monitoring. Animals were sacrificed in the indicated dates, and tumors were harvested, weighed, and further processed for histopathological analysis. All experiments were performed under a Baylor College of Medicine Institutional Animal Care and Use Committee (IACUC)-approved protocol and all experiments confirm to IACUC standards and ethical regulations.
Next day the samples were sent to The Pathology and Histology Core of Baylor College of Medicine for further processing. The paraffin-embedded sections were stained with H&E, Ki-67, TUNEL and anti-cleaved caspase-3 using standard operating protocols.

[9] = test system: MCF7 cells; assay: MTS assay, MCF7; type: cell-based, human; conditions: increasing concentrations, 5 h, versus MCF10A
Protocol: (§2) Then 50 μl of MTS reagent (CellTiter 96® AQueous One Solution Cell Proliferation Assay, Promega) was added to each well, covered from light and incubated for 1 h at 37.0 incubator to develop purple color. The samples were measured at 490 nm in a plate reader (BioTek Synergy HT) against a blank 48-well plate. Each assay was done in triplicate.

[10] = test system: p53 targets p21 and Bax in HCT116 cells; assay: Induction of p21 and Bax in isogenic p53+/+ and p53−/− HCT116 cells; type: cell-based; conditions: p53+/+ versus p53−/− HCT116
[11] = test system: Hs-578T; conditions: NCI-DTP database; cited from earlier work
[12] = test system: RPMI 8226 myeloma cell line; assay: MTS assay, RPMI 8226; type: cell-based, human; conditions: Calcein AM 2.5 μM, 12 h, mutp53(E285K)
Protocol: as §2

[13] = test system: BT549; conditions: NCI-DTP database; cited from earlier work
[14] = 40 mg/kg i.p. every three days for three doses

CC(=O)OCOC(=O)CN(CC(=O)OCOC(C)=O)Cc1cc2c(cc1OC(C)=O)Oc1cc(OC(C)=O)c(CN(CC(=O)OCOC(C)=O)CC(=O)OCOC(C)=O)cc1C21OC(=O)c2ccccc21 [Calcein AM, Calcein AM (acetoxymethyl ester)]
inhibition of p73 transcriptional activity by mutp53(R273H) [1]: blocked
GI50 [2]: < 1000 nM
cell killing (caspase 3/7 activation) [3]: active in killing
mammosphere formation [4]: blocked
apoptosis [5]: induced apoptosis
TopBP1/E2F1 interaction at physiological levels [6]: inhibited
E2F1 pro-apoptotic target genes (p73, Apaf1, caspase 3) [7]: up-regulated
NF-Y target genes (Cdk1, Cdc25C, Cyclin A2) [7]: down-regulation
p63/p73 target genes (Bax, Noxa, Hdm2) [7]: up-regulation
induction of E2F1, p63/p73 and NF-Y target gene expression ([7]; TopBP1-depleted cells): less significant
body weights of mice [8, 14]: without affecting body weights
expression of proliferation marker Ki-67 in xenografts [8, 14]: significantly inhibited
xenograft growth [8, 14]: significantly inhibited xenograft growth
immunohistochemistry of xenografts (Ki-67, TUNEL, cleaved caspase 3) ([8]; one week after the second injection): inhibition of proliferation and induction of apoptosis
tumor response to second round of treatment ([8]; regrown tumors, second round from day 61): responded to Calcein AM injection again
proliferation (MTS) [9]: preferentially inhibited the proliferation
induction of p21 and Bax [10]: observed on in p53^+/+, but not in p53^−/−
GI50 [11]: < 400 nM
doxorubicin sensitivity (MTS) [12]: sensitized cells to doxorubicin
GI50 [13]: < 400 nM and 270 nM
